Patent publication US12508300B2, “Acylated GLP-1 derivative” (Sciwind Biosciences Co., Ltd., priority 2019, dated 2025)
Where two headings read alike, the source gives them in different places. *1 amine or outer side, *2 acyl side, *3 side chain or, on linkers, in order; H or OH if unused. Where a SMILES comes first, the peptide text is derived from it. Where no end group is shown, it is not given here. Side-chain parts run from the residue outwards. The star is where a group is joined. C18 diacid = O=C(O)CCCCCCCCCCCCCCCCC(=O)*; γGlu = O=C(O)[C@H](CCC(=O)[*:2])N[*:1]; AEEA = NCCOCCOCC(=O)O

What was measured:
GLP1R = target: T1, GLP1R (Homo sapiens, UniProt P43220); test: In vitro activity determination in HEK293/CRE-Luc/GLP1R cells (luciferase reporter); assay type: cell-based
T1 construct: expressed in transfected cells; host or cells: HEK293
Procedure: Based on the fact that GLP-1 may bind to the receptor on the cell membrane, the HEK293/CRE-Luc/GLPIR cell line is constructed, the CAMP response elements (CRE) are activated through a series of signal transduction, the expression of downstream luciferase is initiated, and the amount of its expression is positively correlated with the biological activity of GLP-1. After adding the luciferase substrate, the chemiluminescence assay is performed to determine the luminous intensity, thereby determining the biological activity of GLP-1.
96-well cell culture plate (white and opaque), DMEM medium (GIBCO), 0.05% TRYPSIN-EDTA (GIBCO), fetal bovine serum (GIBCO), G418, hygromycin B, Bright-Glo™ Luciferase Assay System Kit (Promega), and HEK293/CRE-luc/GLP1R cells.
(1) Cell preparation: the cells are cultured until they grow vigorously and reach a sufficient quantity, discarding the culture medium in the culture bottle, adding 3 ml of Versene solution and shaking once; then adding 2 ml of 0.05% TRYPSIN-EDTA digestion solution, covering the bottle and standing for 1 minute, and then adding 6 ml of the assay medium to quench the digestion; after centrifugation at 1000 r/min for 3 min, the supernatant is discarded, and the cells are resuspended in 5 ml of assay medium and counted on a hemacytometer. The cell density is adjusted to an appropriate range for later use by using DMEM assay medium.
(2) Sample preparation: the derivatives of different GLP-1 analogues in Table 1 are diluted to 20 ng/ml with the assay medium, then gradient diluted into 8 concentrations in 96-well plates, and using the assay medium instead of the sample as the cell blank control. 2 duplicate wells are made for each dilution concentration.
(3) Culturing with addition of the samples: the prepared solutions of the control and test samples are transferred to a 96-well cell culture plate (white board), adding 50 μl of the solution to each well; then adding the prepared cell suspension, adding 50 μl of the suspension to each well; and then incubating for a certain period of time under the conditions of 37° C. and 5% CO2.
(4) Chemiluminescence assay: substrate is added, then taking out the 96-well cell culture plate, adding 100 μl of Bright Glo reagent to each well, and leaving in the dark for 3 min.
(5) Reading: determination is performed with a chemiluminescence microplate reader SpectraMax L, then reading the plate within 30 min, and recording the determined results.

db/db mice = test: Fasting blood glucose after single injection in type II diabetic db/db mice (FIG. 1); assay type: in vivo; details: 0.05 mg/kg s.c. single, day 2
Procedure: The dosage is 0.05 mg/kg for each, and the administration time is set as 0 h. Fasting blood glucose is measured after fasting for 6-8 h every day, and the fasting blood glucose after administration is measured every day until the fasting blood glucose value of each animal of the test group recovers to the value measured before administration. The blood glucose value measured before administration is called the basal blood glucose value, and is set as 0. Change of the fasting blood glucose (Δ: delta)=Blood glucose value after administration-Basal blood glucose value before administration.

RIN-m5F cells = test: In vitro activity determination in RIN-m5F cells (cAMP assay kit); assay type: cell-based
Procedure: RIN-m5F cells with good culturing status are selected. Cells are then collected, counted, and prepared into a cell suspension of 1×10^5 cells/ml with RPMI1640 basal medium. The cell suspension is inoculated in a 96-well cell culture plate, 100 μl per well, then incubating overnight at 37° C. and 5% CO2.
The prepared cell plate is taken out, then discarding the medium, and blotting it dry on the filter paper. The sample solutions are transferred correspondingly into the cell plate, 40 μl/well; treating with the lid open for 15 min at 37° C. and 5% CO2. The cell culture plate is taken out from the incubator, then adding 10 μl of CD solution (cAMP assay kit, Promega) to each well, keeping the cell plate at 22-25° C., and shaking horizontally at 500 rpm for 20 min. 50 μl of KG solution (cAMP assay kit, Promega) is added to each well, then shaking horizontally at 22° C.-25° C., 500 rpm and avoiding light for 10 min. The chemiluminescence value is read by using the Molecular Devices SpectraMax L chemiluminescence apparatus, completing the measurement in 30 min. EC50 of a sample is calculated by using the four-parameter regression in softmax Pro software.

CD-1 mice = assay type: in vivo; details: 0.15 mg/kg s.c.; for Inhibition rate (blood glucose): Table 5 (second experiment), CD-1 mice; for glucose-lowing effects (comparison in words, Tables 4 and 5): normal mice
Procedure: Twenty-eight healthy female CD-1 mice aged 4-6 weeks are selected and divided into 4 groups, and they are injected subcutaneously with M4, M5, M7 and M0 at a dose of 0.15 mg/kg body weight.

ICR mice = assay type: in vivo; set-up: G-AUC: unit not given here
Procedure: 20% glucose is intragastrically administered every day according to the time schedule of 4 h, 1 d, 2 d, 3 d, 4 d, and 5 d, at a dose of 2 g/kg body weight, and fasting for 6 hours before administering the glucose; and blood is respectively collected from the tip of the tail at 0 h, 0.5 h, 1 h and 2 h after giving the 20% glucose, then measuring the blood glucose value in real time by using Roche blood glucose test paper.

T1 sequence (P43220 24-463, species assumed): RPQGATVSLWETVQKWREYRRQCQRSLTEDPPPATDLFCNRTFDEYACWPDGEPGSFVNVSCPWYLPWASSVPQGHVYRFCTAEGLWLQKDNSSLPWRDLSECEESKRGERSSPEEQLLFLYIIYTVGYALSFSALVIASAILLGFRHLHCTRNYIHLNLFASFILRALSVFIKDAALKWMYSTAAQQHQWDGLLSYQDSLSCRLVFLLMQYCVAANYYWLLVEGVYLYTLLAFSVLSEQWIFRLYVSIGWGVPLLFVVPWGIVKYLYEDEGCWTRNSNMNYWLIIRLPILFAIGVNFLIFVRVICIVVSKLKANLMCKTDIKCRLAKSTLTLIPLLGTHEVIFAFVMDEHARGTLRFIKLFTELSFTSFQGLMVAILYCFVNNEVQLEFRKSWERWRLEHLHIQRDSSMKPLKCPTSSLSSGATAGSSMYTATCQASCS

Molecule	in vitro activities (comparison in words) (RIN-m5F cells)	Inhibition rate (blood glucose) (CD-1 mice; 6 h)	Inhibition rate (blood glucose) (CD-1 mice; 30 h)	Inhibition rate (blood glucose) (CD-1 mice; 54 h)	Inhibition rate (blood glucose) (CD-1 mice; 78 h)	Inhibition rate (blood glucose) (CD-1 mice; 102 h)	glucose-lowing effects (comparison in words, Tables 4 and 5) (CD-1 mice)	G-AUC (ICR mice; 0 h (before administration))	G-AUC (ICR mice; 0.15 mg/kg s.c. single, 4 h)	Inhibition rate (blood glucose) (ICR mice; 0.15 mg/kg s.c. single, 4 h)	G-AUC (ICR mice; 0.15 mg/kg s.c. single, 1 d)	Inhibition rate (blood glucose) (ICR mice; 0.15 mg/kg s.c. single, 1 d)	G-AUC (ICR mice; 0.15 mg/kg s.c. single, 2 d)	Inhibition rate (blood glucose) (ICR mice; 0.15 mg/kg s.c. single, 2 d)	G-AUC (ICR mice; 0.15 mg/kg s.c. single, 3 d)	Inhibition rate (blood glucose) (ICR mice; 0.15 mg/kg s.c. single, 3 d)	G-AUC (ICR mice; 0.15 mg/kg s.c. single, 4 d)	Inhibition rate (blood glucose) (ICR mice; 0.15 mg/kg s.c. single, 4 d)	G-AUC (ICR mice; 0.15 mg/kg s.c. single, 5 d)	Inhibition rate (blood glucose) (ICR mice; 0.15 mg/kg s.c. single, 5 d)	other results
CC[C@H](C)[C@H](NC(=O)[C@H](Cc1ccccc1)NC(=O)[C@H](CCC(=O)O)NC(=O)[C@H](CCCNC(=N)N)NC(=O)[C@H](C)NC(=O)[C@H](C)NC(=O)[C@H](CCC(N)=O)NC(=O)[C@H](CCC(=O)O)NC(=O)[C@H](CCC(=O)O)NC(=O)[C@H](CC(C)C)NC(=O)[C@H](Cc1ccc(O)cc1)NC(=O)[C@H](CO)NC(=O)[C@H](CO)NC(=O)[C@@H](NC(=O)[C@H](CC(=O)O)NC(=O)[C@H](CO)NC(=O)[C@@H](NC(=O)[C@H](Cc1ccccc1)NC(=O)[C@@H](NC(=O)CNC(=O)[C@H](CCC(=O)O)NC(=O)[C@H](CO)NC(=O)[C@@H](N)Cc1c[nH]cn1)[C@@H](C)O)[C@@H](C)O)C(C)C)C(=O)N[C@@H](CCCCNC(=O)COCCOCCNC(=O)COCCOCCNC(=O)CC[C@H](NC(=O)CCCCCCCCCCCCCCCCC(=O)O)C(=O)O)C(=O)N[C@@H](Cc1c[nH]c2ccccc12)C(=O)N[C@@H](CC(C)C)C(=O)N[C@H](C(=O)N[C@@H](CCCNC(=N)N)C(=O)NCC(=O)N[C@@H](CCCNC(=N)N)C(=O)NCC(=O)O)C(C)C [M17, N-ε^30-[2-(2-[2-(2-[2-(2-[4-(17-carboxyheptadecanoylamino)-4(s)-carboxybutyrylamino]ethoxy)ethoxy]acetylamino)ethoxy]ethoxy)acetyl](Ser^8Glu^22Lys^30Arg^26,34-GLP-1(7-37)) peptide] (H-HSEGTFTSDVSSYLEEQAAREFIK([AEEA-AEEA-γGlu-C18 diacid])WLVRGRG-OH; N-terminus and C-terminus assumed)																					in vitro activities (comparison in words) (GLP1R): comparable; glucose-lowing effect compared with Semaglutide (FIG. 1) (db/db mice): lower than that of Semaglutide
N-ε^34-[2-(2-[2-(2-[2-(2-[4-(17-carboxyheptadecanoylamino)-4(s)-carboxybutyrylamino]ethoxy)ethoxy]acetylamino)ethoxy]ethoxy)acetyl](Val^8Glu^22 Arg^26Lys^34-GLP-1(7-37)) peptide (HVEGTFTSDVSSYLEEQAAREFIAWLVK([AEEA-AEEA-γGlu-C18 diacid])GRG) [M5]	comparable	29.59%	39.47%	30.11%	27.07%	15.38%	comparable	16.3 ± 2.5	11.5 ± 1.0	29.59%	9.9 ± 0.7	39.47%	11.4 ± 1.3	30.11%	11.9 ± 2.0	27.07%	13.8 ± 1.9	15.38%	14.4 ± 2.2	11.66%	
N-ε^37-[2-(2-[2-(2-[2-(2-[4-(17-carboxyheptadecanoylamino)-4(s)-carboxybutyrylamino]ethoxy)ethoxy]acetylamino)ethoxy]ethoxy)acetyl](Val^8Glu^22Arg^26,34Lys^37-GLP-1 (7-37)) peptide (HVEGTFTSDVSSYLEEQAAREFIAWLVRGRK([AEEA-AEEA-γGlu-C18 diacid])) [M7]	comparable	27.22%	38.82%	22.56%	22.48%	11.60%	comparable	16.3 ± 2.7	11.8 ± 1.4	27.22%	10.0 ± 1.6	38.82%	12.6 ± 1.5	22.56%	12.6 ± 0.7	22.48%	14.4 ± 1.1	11.60%	15.2 ± 1.0	6.76%	
